Results as given in article PMC7923628 (Proceedings of the National Academy of Sciences of the …, 2021).
Values belong to the compound of their own block, whether it stands above or below them.

What was measured:
E3 ROC1–CUL1 CTD = E3 ROC1–CUL1 CTD (Homo sapiens, UniProt Q13616); assay: FRET K48 di-Ub synthesis with ROC1–CUL1 CTD; type: biochemical; conditions: for blocking ubiquitination (in words): Table S2
p27 = assay: Immunoblot of CRL1/SCF^Skp2 substrate p27 in MV4-11 cells; type: cell-based, human
MV4-11 tumors = assay: AML MV4-11 subcutaneous xenograft in mice; type: in vivo, mouse; conditions: G5, 3 mg/kg, oral, QD
E3 ROC1–CUL1 CTD complex = E3 ROC1–CUL1 CTD complex (Homo sapiens, UniProt Q13616); assay: MST ligand binding to ROC1–CUL1 CTD; conditions: Table S2
E3 ROC1–CUL1 CTD complex, sequence (Q13616 411-776): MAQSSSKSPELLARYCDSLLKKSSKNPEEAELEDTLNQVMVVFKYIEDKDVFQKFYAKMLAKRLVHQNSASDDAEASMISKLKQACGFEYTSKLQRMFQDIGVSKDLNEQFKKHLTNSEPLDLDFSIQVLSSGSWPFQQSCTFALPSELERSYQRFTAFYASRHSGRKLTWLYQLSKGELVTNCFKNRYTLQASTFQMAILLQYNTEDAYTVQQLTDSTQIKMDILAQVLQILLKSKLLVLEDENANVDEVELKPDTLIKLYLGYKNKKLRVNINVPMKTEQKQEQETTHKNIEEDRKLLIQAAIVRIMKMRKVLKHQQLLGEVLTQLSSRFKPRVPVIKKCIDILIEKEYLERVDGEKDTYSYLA
E3 ROC1–CUL1 CTD complex, sequence (P62877 whole entry partner): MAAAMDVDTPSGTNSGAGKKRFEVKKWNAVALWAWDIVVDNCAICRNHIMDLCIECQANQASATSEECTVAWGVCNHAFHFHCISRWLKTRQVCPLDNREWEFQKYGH

E3 ROC1–CUL1 CTD, sequence (Q13616 411-776): as the sequence (Q13616 411-776) above
E3 ROC1–CUL1 CTD, sequence (P62877 whole entry partner): as the sequence (P62877 whole entry partner) above

Compound: NS(=O)(=O)OC[C@@H]1C[C@@H](n2ccc3c(N[C@H]4CCc5ccccc54)ncnc32)C[C@@H]1O [MLN4924]
effect on p27 level (p27): stabilized

Compound: CNC(=O)c1cc(Oc2ccc(NC(=O)Nc3ccc(Cl)c(C(F)(F)F)c3)cc2)ccn1 [sorafenib]
tumor inhibition (MV4-11 tumors): 46.02%

Compound: Cc1oc2c(O)c(O)ccc2c(=O)c1Oc1ccccc1 [33-2, 7,8-dihydroxy-2-methyl-3-phenoxy-4H-chromen-4-one]
drop in IC50 (E3 ROC1–CUL1 CTD; compared with 33): sevenfold

Results, then the compound that gave them:

blocking ubiquitination (in words) (E3 ROC1–CUL1 CTD): inactive
Compound: O=c1c(Oc2ccccc2)c(C(F)(F)F)oc2cc(O)ccc12 [33-7, 7-hydroxy-3-phenoxy-2-(trifluoromethyl)-4H-chromen-4-one]

E3 binding (in words) (E3 ROC1–CUL1 CTD complex): completely inactive
blocking ubiquitination (in words) (E3 ROC1–CUL1 CTD): completely inactive
Compound: COc1ccc2c(=O)c(Oc3ccccc3)c(C)oc2c1OC [33-3, 7,8-dimethoxy-2-methyl-3-phenoxy-4H-chromen-4-one]
